Experimental data: US20230416233A1, “(AZA)QUINOLINE 4-AMINES DERIVATIVES AS P2X3 INHIBITORS” (CHIESI FARMACEUTICI S.P.A., priority 2020, published 2023)
Like-named read-outs stand apart in the source and are kept apart here.

Legend:
[1] = target: T1, h P2X3 (Homo sapiens, UniProt P56373); assay: In vitro electrophysiology assay for P2X3 (Sophion Qube automated whole-cell patch clamp); assay type: cell-based; details: for h P2X3 (pIC50 range of activity): Table 3
T1 sequence (P56373 1-397): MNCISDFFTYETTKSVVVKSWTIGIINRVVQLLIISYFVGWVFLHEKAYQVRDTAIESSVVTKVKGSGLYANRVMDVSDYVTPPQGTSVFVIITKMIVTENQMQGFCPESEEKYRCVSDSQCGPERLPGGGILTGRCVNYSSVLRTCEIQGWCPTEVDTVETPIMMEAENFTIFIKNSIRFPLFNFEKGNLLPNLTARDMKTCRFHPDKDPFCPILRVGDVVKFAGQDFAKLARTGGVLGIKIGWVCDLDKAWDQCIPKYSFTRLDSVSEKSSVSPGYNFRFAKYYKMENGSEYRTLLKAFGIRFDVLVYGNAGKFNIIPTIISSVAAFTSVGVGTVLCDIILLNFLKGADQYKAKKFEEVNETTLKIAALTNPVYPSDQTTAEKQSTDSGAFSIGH
Experimental: In Vitro Electrophysiology Assay for P2X3
(§1) Cells expressing P2X3 receptors were grown according to standard practice and maintained at 37° C. in a 5% humidified CO2 atmosphere. The cells were seeded into T175 flask 2 days prior to the day of the assay and dissociated from the flasks using TrypLE when grown to confluence of 80-90%. The dissociated cells were resuspended in serum free media at a cell density of 3×10^6 cells/ml and loaded onto the Sophion Qube automated patch-clamp system. The extracellular assay buffer contained 145 mM NaCl, 4 mM KCl, 2 mM CaCl2, 1 mM MgCl2, 10 mM HEPES, and 10 mM glucose at pH 7.4. The intracellular assay solution contained 140 mM CsF, 10 mM NaCl, 10 mM EGTA, 10 mM HEPES at pH 7.2. Agonist stock solutions were prepared in H2O and diluted in bath solution prior to use. All antagonists were prepared as 10 mM stock solutions in DMSO and diluted in bath solution prior to use. All experiments were performed under the whole-cell patch clamp configuration at room temperature with 384 individual cells being voltage clamped at −60 mV simultaneously on the Sophion Qube instrument. Two baseline responses were established with the application of α,β-MeATP (800 nM), with the subsequent agonist applications being washed out using extracellular assay buffer containing 0.5 U/ml apyrase. Following the second agonist application, antagonist was incubated in the absence of α,β-MeATP for 10 minutes. After antagonist preincubation, 800 nM α,β-MeATP and antagonist were co-administered to determine the inhibitory effect of the antagonist. One concentration of an antagonist was assessed against a single cell, with different concentrations of the antagonist applied to other cells on the 384 recording substrate. The control P2X3 current amplitude was taken from the peak current amplitude from the second agonist response prior to preincubation with antagonist. The peak P2X3 current amplitude in the presence of antagonist was used to calculate the inhibitory effect at each concentration of the antagonist according to the following equation:
Percentage inhibition of P2X3=(P2X3 control peak amplitude−P2X3 antagonist peak amplitude)/P2X3 control peak amplitude)*100
Concentration-response curves were constructed from ten different concentrations with each concentration of antagonist tested on at least two individual cells. The concentration of the antagonist to inhibit P2X3 current by 50% (IC50) was determined by fitting the data with the following equation:
Y=a+[(b−a)/(1+10^((log c−x)d)]
Where ‘a’ is minimum response, ‘b’ is maximum response, ‘c’ is IC50 and ‘d’ is Hill slope.
The results for individual compounds are provided below in Table 2 and are expressed as range of activity.

[2] = target: T2, h P2X2/3 (Homo sapiens, UniProt P56373+Q9UBL9); assay: In vitro electrophysiology assay for P2X2/3 (same protocol as the P2X3 assay, 10 μM ATP as agonist); assay type: cell-based; details: Table 3; agonist 10 μM ATP, mean current amplitude seven seconds after agonist; read-out: h P2X2/3 (pIC50 range of activity) (converted)
T2 construct: host or cells: cells not described; same protocol as the P2X3 assay
T2 sequence (P56373 1-397): T1 sequence (P56373 1-397)
T2 sequence (Q9UBL9 1-471): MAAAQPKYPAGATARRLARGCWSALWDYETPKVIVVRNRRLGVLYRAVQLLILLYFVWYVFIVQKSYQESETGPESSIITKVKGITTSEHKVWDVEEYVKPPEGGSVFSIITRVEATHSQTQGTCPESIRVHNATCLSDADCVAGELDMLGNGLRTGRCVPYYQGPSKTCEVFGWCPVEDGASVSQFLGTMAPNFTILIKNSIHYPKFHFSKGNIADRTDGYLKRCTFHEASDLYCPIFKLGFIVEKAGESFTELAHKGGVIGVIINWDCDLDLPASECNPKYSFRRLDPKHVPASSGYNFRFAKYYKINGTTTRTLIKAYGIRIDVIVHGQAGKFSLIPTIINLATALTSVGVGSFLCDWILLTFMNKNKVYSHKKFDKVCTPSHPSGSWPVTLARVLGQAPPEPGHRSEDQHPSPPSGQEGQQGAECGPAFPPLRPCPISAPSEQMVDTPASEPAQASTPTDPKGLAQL
Experimental: as §1, with “The peak P2X3 current amplitude in the presence of antagonist was used to calculate the inhibitory effect at each concentration of the antagonist according to the following equation:” left out
The same assay protocol was used for the P2X2/3 assay as the P2X3 assay with two modifications: 1) 10 μM ATP was used as the agonist; and 2) the mean current amplitude was measured seven seconds after the application of agonist.

[3] = Table 2, agonist 800 nM α,β-MeATP, 10 min antagonist preincubation, peak current, read-out: h P2X3 (pIC50 range of activity) (converted)
[4] = agonist 800 nM α,β-MeATP, peak current

Cc1ccc(CNc2nccc3ccc(-c4ccc(F)cc4)cc23)nn1 [comparative Example A, reference compound]
IC50 ([1]; in vitro assay as described for P2X3, read-out: activity on receptor P2X3 expressed as pIC50 (converted)): > 3160 nM

COc1cc(-c2ncc(C)cn2)cc2c(N[C@H](C)c3ccc(C)nn3)cnnc12 [Example 8, (R)-8-methoxy-N-(1-(6-methylpyridazin-3-yl)ethyl)-6-(5-methylpyrimidin-2-yl)cinnolin-4-amine]
IC50 [2]: 3.16 to 31.6 µM | IC50 [1, 3]: < 316 nM | h P2X3 (pIC50 range of activity) [1, 4]: +++ (+++: pIC50 h P2X3 or h P2X2/3 > 6.5)

Cc1ccc(-c2ccc3nccc(N[C@H](C)c4cnc(C(F)(F)F)nc4)c3c2)nc1 [Example 9, (R)-6-(5-methylpyridin-2-yl)-N-(1-(2-(trifluoromethyl)pyrimidin-5-yl)ethyl) quinolin-4-amine]
IC50 [1, 3]: < 316 nM

Cc1ccc(-c2ccc3nncc(NCc4ccc(C)nn4)c3c2)nc1 [Example 5, N-((6-methylpyridazin-3-yl)methyl)-6-(5-methylpyridin-2-yl)cinnolin-4-amine]
IC50 [1, 3]: < 316 nM

Cc1ccc(-c2ccc3nccc(NCc4ccc(C)nn4)c3c2)nc1 [Example 10, N-((6-methylpyridazin-3-yl)methyl)-6-(5-methylpyridin-2-yl)quinolin-4-amine]
IC50 [1, 3]: < 316 nM

Cc1ccc(CNc2ccnc3ccc(-c4ccc(F)cc4)cc23)nn1 [Example 11, 6-(4-Fluorophenyl)-N-((6-methylpyridazin-3-yl)methyl)quinolin-4-amine]
IC50 [1, 3]: < 316 nM

C[C@@H](Nc1cnnc2ccc(-c3ccc(F)cc3)cc12)c1cnc(C(F)(F)F)nc1 [Example 2, 6-(4-Fluorophenyl)-N-((1R)-1-(2-(trifluoromethyl)pyrimidin-5-yl)ethyl)cinnolin-4-amine]
IC50 [2]: 0.316 to 3.16 µM | IC50 [1, 3]: < 316 nM | h P2X3 (pIC50 range of activity) [1, 4]: +++ (+++: pIC50 h P2X3 or h P2X2/3 > 6.5)

COc1cc(-c2ccc(F)cc2)cc2c(N[C@H](C)c3cnc(C(F)(F)F)nc3)cnnc12 [Example 7, (R)-6-(4-fluorophenyl)-8-methoxy-N-(1-(2-(trifluoromethyl)pyrimidin-5-yl)ethyl)cinnolin-4-amine]
IC50 [1, 3]: < 316 nM

Cc1ccc(CNc2cnnc3ccc(-c4ccc(F)cc4)cc23)nn1 [Example 1, 6-(4-Fluorophenyl)-N-((6-methylpyridazin-3-yl)methyl)cinnolin-4-amine]
IC50 [1, 3]: < 316 nM

COc1cc(-c2ccc(F)cc2)cc2c(N[C@H](C)c3ccc(C)nn3)cnnc12 [Example 6, (R)-6-(4-fluorophenyl)-8-methoxy-N-(1-(6-methylpyridazin-3-yl)ethyl)cinnolin-4-amine]
IC50 [1, 3]: < 316 nM

Cc1cnc(-c2ccc3nncc(N[C@H](C)c4cnc(C(F)(F)F)nc4)c3c2)s1 [Example 3, 6-(5-Methylthiazol-2-yl)-N-((1R)-1-(2-(trifluoromethyl)pyrimidin-5-yl)ethyl)cinnolin-4-amine]
IC50 [1, 3]: < 316 nM

C[C@@H](Nc1ccnc2ccc(-c3ccc(F)cc3)cc12)c1cnc(C(F)(F)F)nc1 [Example 12, (R)-6-(4-fluorophenyl)-N-(1-(2-(trifluoromethyl)pyrimidin-5-yl)ethyl)quinolin-4-amine]
IC50 [1, 3]: 316 to 3160 nM

Cc1ccc(-c2ccc3nncc(N[C@H](C)c4cnc(C(F)(F)F)nc4)c3c2)nc1 [Example 4, 6-(5-Methylpyridin-2-yl)-N-((1R)-1-(2-(trifluoromethyl)pyrimidin-5-yl)ethyl)cinnolin-4-amine]
IC50 [2]: 0.316 to 3.16 µM | IC50 [1, 3]: < 316 nM | h P2X3 (pIC50 range of activity) [1, 4]: +++ (+++: pIC50 h P2X3 or h P2X2/3 > 6.5)

Cc1ccc([C@@H](C)Nc2cnnc3ccc(-c4ccc(F)cc4)cc23)nn1 [Example 13, 6-(4-Fluorophenyl)-N-[(1R)-1-(6-methylpyridazin-3-yl)ethyl]cinnolin-4-amine]
IC50 [1, 3]: < 316 nM
